Data from PMC5762315, “Inhibition of polo-like kinase 4 (PLK4): a new therapeutic option for rhabdoid tumors and pediatric medulloblastoma” (Oncotarget, 2017).
Where “and” joins values, the source holds several entries; their conditions need not be identical. Equal values may be shown once.

Key:
various kinases [1] = target: various kinases (Homo sapiens, UniProt Q9Y2K2); assay: LanthaScreen Eu Kinase Binding Assay, panel of 486 biochemical kinase assays; settings: kinase SIK3; LanthaScreen Binding
Chain of various kinases (Homo sapiens, UniProt Q9Y2K2) (Q9Y2K2 whole entry): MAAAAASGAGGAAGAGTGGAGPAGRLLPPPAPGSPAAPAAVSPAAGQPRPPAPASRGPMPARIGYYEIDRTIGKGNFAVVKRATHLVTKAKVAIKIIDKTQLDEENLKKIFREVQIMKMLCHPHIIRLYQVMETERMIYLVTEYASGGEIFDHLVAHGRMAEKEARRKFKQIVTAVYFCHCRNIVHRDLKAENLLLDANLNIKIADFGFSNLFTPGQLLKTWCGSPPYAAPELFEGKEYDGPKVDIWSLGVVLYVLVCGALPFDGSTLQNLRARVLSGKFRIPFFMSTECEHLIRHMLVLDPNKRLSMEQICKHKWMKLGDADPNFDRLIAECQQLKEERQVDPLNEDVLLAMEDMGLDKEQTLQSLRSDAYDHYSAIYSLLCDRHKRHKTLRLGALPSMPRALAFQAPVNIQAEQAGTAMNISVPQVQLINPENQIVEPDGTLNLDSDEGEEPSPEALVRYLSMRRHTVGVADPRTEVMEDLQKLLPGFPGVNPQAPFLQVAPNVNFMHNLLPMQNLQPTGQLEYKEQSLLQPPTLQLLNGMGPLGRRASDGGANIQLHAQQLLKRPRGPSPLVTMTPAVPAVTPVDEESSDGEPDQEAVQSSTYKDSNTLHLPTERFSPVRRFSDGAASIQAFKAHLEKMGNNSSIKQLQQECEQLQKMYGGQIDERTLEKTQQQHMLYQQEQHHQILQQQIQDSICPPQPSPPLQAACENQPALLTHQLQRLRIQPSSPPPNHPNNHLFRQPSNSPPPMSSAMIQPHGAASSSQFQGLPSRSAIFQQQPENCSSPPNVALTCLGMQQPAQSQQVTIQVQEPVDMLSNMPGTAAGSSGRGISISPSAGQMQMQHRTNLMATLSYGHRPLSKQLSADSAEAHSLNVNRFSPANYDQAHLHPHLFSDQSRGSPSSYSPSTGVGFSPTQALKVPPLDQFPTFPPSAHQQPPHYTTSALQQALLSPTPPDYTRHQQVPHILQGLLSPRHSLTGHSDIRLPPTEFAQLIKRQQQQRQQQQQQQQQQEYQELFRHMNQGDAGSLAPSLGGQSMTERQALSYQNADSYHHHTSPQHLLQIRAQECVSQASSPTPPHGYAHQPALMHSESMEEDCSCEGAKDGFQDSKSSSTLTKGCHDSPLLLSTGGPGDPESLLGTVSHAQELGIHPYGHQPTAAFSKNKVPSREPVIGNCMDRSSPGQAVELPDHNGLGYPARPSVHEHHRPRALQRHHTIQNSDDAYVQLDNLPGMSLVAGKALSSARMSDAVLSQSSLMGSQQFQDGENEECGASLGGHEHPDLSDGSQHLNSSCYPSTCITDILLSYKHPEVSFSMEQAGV

various kinases [2] = target: various kinases (Homo sapiens, UniProt P24941); assay: as above
various kinases [3] = target: various kinases (Homo sapiens, UniProt Q9H4A3); assay: as above; settings: kinase WNK1; LanthaScreen Binding
Chain of various kinases (Homo sapiens, UniProt Q9H4A3) (Q9H4A3 whole entry): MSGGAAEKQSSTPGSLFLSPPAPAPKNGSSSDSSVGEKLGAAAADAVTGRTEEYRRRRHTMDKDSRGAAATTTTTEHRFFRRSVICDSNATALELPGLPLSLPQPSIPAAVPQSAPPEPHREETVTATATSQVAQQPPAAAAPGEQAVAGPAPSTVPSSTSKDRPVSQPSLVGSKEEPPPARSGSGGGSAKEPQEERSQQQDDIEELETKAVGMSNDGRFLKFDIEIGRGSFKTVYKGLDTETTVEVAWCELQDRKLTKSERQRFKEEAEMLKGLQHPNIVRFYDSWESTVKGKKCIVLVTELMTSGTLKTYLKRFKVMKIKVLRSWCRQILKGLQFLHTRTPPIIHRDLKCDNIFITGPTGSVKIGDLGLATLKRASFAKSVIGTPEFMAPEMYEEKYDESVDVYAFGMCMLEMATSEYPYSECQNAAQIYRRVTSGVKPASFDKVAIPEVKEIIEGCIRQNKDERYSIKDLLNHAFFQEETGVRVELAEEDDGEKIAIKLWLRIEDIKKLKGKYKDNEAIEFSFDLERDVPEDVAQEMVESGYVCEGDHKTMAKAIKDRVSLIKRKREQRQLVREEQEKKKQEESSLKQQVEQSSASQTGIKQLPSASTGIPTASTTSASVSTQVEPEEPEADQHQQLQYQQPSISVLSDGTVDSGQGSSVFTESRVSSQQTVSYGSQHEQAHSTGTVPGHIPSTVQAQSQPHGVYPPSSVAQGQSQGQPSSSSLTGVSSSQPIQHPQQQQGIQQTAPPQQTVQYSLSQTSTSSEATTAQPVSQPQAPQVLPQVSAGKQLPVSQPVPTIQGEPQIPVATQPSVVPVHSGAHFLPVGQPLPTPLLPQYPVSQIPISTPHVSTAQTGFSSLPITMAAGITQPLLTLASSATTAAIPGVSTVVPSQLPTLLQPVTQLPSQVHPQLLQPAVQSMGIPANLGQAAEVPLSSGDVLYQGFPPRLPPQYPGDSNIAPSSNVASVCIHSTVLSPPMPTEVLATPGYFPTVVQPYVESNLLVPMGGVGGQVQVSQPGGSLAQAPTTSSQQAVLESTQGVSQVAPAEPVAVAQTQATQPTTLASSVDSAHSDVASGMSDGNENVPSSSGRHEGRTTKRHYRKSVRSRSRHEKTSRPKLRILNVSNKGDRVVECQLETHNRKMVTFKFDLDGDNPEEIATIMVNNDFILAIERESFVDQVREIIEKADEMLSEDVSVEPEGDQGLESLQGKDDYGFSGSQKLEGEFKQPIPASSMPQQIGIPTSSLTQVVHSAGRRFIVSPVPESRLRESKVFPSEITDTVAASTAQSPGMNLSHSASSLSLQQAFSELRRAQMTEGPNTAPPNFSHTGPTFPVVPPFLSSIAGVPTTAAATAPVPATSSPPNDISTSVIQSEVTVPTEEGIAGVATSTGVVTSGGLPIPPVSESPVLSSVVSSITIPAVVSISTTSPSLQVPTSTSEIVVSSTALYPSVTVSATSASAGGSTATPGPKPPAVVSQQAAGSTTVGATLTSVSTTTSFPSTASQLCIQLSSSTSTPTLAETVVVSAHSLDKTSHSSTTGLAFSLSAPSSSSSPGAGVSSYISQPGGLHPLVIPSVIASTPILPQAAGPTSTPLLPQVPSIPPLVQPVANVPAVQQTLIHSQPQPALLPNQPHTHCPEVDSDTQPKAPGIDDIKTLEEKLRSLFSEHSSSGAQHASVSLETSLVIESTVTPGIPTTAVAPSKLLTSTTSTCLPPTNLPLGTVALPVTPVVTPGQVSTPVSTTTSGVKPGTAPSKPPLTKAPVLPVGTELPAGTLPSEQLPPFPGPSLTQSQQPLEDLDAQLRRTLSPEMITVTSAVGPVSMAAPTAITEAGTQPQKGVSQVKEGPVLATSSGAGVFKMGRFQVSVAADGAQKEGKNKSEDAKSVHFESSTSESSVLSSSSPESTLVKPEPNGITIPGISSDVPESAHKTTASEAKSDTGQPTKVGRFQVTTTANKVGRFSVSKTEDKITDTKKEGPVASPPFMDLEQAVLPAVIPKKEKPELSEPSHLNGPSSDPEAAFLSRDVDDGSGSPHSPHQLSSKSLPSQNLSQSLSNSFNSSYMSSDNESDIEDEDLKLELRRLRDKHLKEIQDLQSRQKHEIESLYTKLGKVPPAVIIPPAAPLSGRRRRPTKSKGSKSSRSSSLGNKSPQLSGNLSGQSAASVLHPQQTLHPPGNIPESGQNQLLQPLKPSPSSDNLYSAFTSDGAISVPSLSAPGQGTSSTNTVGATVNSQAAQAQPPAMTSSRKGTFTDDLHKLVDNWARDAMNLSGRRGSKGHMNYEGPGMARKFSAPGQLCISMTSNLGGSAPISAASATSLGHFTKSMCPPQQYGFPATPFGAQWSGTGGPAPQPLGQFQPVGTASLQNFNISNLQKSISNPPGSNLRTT

various kinases [4] = target: various kinases (Homo sapiens, UniProt P29320); assay: as above; settings: EPHA3
various kinases [5] = target: various kinases (Homo sapiens, UniProt Q9HAZ1); assay: as above; settings: CLK4
various kinases [6] = target: various kinases (Homo sapiens, UniProt Q16584); assay: as above; settings: MAP3K11 (MLK3)
various kinases [7] = target: various kinases (Homo sapiens, UniProt Q16832, N456S); assay: as above; settings: DDR2 N456S
various kinases [8] = target: various kinases (Homo sapiens, UniProt O75460); assay: as above; settings: ERN1
various kinases [9] = target: various kinases (Homo sapiens, UniProt Q09013); assay: as above; settings: DMPK
various kinases [10] = target: T1, various kinases (Homo sapiens, UniProt Q8IYT8); assay: as above; settings: kinase ULK2; LanthaScreen Binding
T1 sequence (Q8IYT8 1-1036): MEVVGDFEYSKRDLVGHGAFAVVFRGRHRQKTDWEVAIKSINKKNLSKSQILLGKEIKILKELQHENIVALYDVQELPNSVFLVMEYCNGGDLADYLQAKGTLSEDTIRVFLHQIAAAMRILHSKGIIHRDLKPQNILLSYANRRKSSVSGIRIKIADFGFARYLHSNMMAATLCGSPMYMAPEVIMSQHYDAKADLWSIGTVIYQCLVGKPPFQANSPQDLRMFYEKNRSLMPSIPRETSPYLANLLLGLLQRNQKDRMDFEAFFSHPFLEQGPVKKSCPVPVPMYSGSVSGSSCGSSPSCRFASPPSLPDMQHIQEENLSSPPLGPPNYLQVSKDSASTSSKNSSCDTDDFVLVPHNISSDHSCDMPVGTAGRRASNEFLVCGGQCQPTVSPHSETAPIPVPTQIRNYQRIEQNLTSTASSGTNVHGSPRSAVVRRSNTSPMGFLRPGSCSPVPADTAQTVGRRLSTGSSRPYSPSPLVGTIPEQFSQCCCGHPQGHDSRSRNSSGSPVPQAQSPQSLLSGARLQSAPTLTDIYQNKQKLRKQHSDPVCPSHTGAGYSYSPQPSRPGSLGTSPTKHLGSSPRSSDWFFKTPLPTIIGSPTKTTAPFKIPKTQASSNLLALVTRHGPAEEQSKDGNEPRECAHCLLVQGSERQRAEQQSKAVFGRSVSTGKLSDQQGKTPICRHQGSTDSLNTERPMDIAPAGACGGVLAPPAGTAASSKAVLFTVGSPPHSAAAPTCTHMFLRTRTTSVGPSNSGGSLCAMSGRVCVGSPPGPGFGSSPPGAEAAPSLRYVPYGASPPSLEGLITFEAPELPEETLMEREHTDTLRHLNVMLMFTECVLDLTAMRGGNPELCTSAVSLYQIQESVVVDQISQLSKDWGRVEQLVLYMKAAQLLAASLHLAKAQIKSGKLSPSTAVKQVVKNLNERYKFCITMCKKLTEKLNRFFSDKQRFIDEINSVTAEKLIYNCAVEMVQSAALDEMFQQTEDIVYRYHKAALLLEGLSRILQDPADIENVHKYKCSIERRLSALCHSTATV

various kinases [11] = target: various kinases (Homo sapiens, UniProt P22607, K650M); assay: as above; settings: FGFR3 K650M
MON MRT cells = assay: Confluency assay (IncuCyte ZOOM), MON; type: cell-based, human; settings: increasing concentrations starting at 31.25nM, 48 hours, p-value=0.004
Method: For further evaluation of the effect of the PLK4 inhibitor over tumor cell proliferation, confluency was measured over a 48 hour period. MON, BT-12, G401 and DAOY cells were plated in 96-well plates with a density of 6 x 10^4 per well. […] Confluency was monitored for 48 hours by taking phase contrast images every 2 hours and measured using an IncuCyte ZOOM system (Essen BioScience, USA). Experiments were performed in triplicates.

various kinases [12] = target: various kinases (Homo sapiens, UniProt P42338); assay: Adapta Universal Kinase Assay, panel of 486 biochemical kinase assays
Chain of various kinases (Homo sapiens, UniProt P42338) (P42338 whole entry): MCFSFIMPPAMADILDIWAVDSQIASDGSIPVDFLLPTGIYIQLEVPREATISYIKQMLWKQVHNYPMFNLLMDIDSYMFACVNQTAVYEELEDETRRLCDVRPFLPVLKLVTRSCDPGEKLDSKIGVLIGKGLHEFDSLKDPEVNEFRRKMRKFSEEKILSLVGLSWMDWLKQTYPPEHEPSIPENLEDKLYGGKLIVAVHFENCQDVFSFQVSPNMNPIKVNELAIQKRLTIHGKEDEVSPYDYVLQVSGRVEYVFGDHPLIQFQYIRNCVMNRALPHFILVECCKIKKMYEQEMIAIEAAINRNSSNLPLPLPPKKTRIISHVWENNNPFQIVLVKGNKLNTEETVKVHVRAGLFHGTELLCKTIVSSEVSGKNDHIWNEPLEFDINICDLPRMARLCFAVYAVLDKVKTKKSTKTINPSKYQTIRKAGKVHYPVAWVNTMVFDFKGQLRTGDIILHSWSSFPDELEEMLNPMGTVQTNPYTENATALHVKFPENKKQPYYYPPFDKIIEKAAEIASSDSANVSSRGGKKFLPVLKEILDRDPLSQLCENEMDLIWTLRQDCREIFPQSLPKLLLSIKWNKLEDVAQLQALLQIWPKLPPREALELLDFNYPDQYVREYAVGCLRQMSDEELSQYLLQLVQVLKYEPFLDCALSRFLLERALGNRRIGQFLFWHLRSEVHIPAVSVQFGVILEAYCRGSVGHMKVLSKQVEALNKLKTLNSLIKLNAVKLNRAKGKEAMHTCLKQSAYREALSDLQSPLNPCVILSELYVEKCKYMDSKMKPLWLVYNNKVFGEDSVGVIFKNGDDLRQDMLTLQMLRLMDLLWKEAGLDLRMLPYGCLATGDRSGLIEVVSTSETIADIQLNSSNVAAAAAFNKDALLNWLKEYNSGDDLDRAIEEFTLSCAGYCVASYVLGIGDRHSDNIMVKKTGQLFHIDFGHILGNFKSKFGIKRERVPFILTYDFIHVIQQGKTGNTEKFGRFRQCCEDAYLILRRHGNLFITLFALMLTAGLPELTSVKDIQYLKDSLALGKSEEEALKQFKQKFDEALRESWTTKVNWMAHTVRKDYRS

various kinases [13] = target: various kinases (Homo sapiens, UniProt P42356); assay: as above; settings: PI4KA (PI4K alpha)
various kinases [14] = target: various kinases (Homo sapiens, UniProt P48736); assay: as above; settings: PIK3CG (p110 gamma)
various kinases [15] = target: various kinases (Homo sapiens, UniProt Q9UBF8); assay: as above; settings: PI4KB (PI4K beta)
various kinases [16] = target: various kinases (Homo sapiens, UniProt Q5S007); assay: as above
various kinases [17] = target: various kinases (Homo sapiens, UniProt Q8TF76); assay: as above; settings: GSG2 (Haspin)
[18] = tested on: MON, G401, BT-12 and BT-16 rhabdoid cell lines; assay: Flow cytometry apoptosis (Annexin V / PI); type: cell-based, human; settings: G401, BT-12, BT-16, 100nM for 48 hours
Method: Live cells were stained with Annexin V as an indicator of early apoptosis and Propidium Iodide (PI - Thermo Fisher Scientific, USA) for detection of late apoptosis and necrosis, according to manufacturer’s instructions (Thermo Fisher Scientific, USA). Flow cytometric analysis was performed on a BD Fortessa instrument (BD Biosciences, USA) within an hour of staining. Data was analyzed using Modfit LT from Verity Software House. All experiments were performed in triplicates.

COc1ccc2c(c1)[C@]1(C[C@H]1c1ccc3c(/C=C/c4ccc(CN5C[C@@H](C)O[C@@H](C)C5)cc4)n[nH]c3c1)C(=O)N2 [CFI-400945]
% Inhibition Average (various kinases [1]): 5% | % Inhibition Duplicate #1 (various kinases [1]): 10% | % Inhibition Duplicate #2 (various kinases [1]): 1% | % Inhibition (various kinases [2]; CDK2/cyclin A1): 12% and 19% | % Inhibition (various kinases [2]; CDK2/cyclin E1): 9% | % Inhibition (various kinases [2]; CDK2/cyclin O): 13% and 19% | % Inhibition Average (various kinases [3]): 11% | % Inhibition Duplicate #1 (various kinases [3]): 14% | % Inhibition Duplicate #2 (various kinases [3]): 8% | % Inhibition (various kinases [4]): -2% and -1% | % Inhibition (various kinases [5]): 1% and -2% | % Inhibition (various kinases [6]): 7% and -2% | % Inhibition (various kinases [7]): 77% and 74% | % Inhibition (various kinases [8]): 3% and 7% | % Inhibition (various kinases [9]): 1% and -3% | % Inhibition Average (various kinases [10]): 6% | % Inhibition Duplicate #1 (various kinases [10]): 2% | % Inhibition Duplicate #2 (various kinases [10]): 11% | % Inhibition (various kinases [11]): 44% and 48% | FC, delay in reaching confluency (MON MRT cells): 1.56 | % Inhibition (various kinases [12]; PIK3CB/PIK3R1 (p110 beta/p85 alpha)): 4% and 3% | % Inhibition (various kinases [12]; PIK3CB/PIK3R2 (p110 beta/p85 beta)): 12% and 6% | % Inhibition (various kinases [13]): 12% and 7% | % Inhibition (various kinases [14]): -2% and -5% | % Inhibition (various kinases [15]): 3% and 11% | % Inhibition (various kinases [16]; LRRK2): 34% and 26% | % Inhibition (various kinases [16]; LRRK2 FL): 43% and 42% | % Inhibition (various kinases [17]): -7% and 3% | cell death (apoptosis, flow cytometry) vs control [18]: significantly higher percentage of cells undergoing cell death
